# Source: BindingDB's records for PubMed 1650832 (Pfizer, 1991)
# Molecular target: T1, Cysteinyl leukotriene receptor 2 (Cavia porcellus, UniProt Q2NNR4)
# T1 sequence (Q2NNR4 whole entry): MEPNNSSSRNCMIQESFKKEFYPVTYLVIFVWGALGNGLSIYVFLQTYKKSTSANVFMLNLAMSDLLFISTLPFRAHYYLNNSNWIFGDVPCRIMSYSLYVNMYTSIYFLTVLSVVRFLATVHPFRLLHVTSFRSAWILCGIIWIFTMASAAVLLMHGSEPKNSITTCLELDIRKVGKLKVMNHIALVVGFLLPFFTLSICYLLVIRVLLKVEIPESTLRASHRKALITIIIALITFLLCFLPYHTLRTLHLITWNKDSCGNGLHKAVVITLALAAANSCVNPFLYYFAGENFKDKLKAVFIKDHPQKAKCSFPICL
row,Ki [nM],Compound
1,178,CCCCCC=CCC=CC=CC=CC(SCC(NC(=O)CCC(N)C(=O)O)C(=O)NCC(=O)O)C(O)CCCC(=O)O (centres undefined) [CAS_5283121]
2,0.49,"CCCCC/C=C\C\C=C/C=C/C=C/[C@@H](SC[C@H](N)C(=O)NCC(=O)O)[C@@H](O)CCCC(=O)O [5S-hydroxy-6R-(S-cysteinylglycinyl)-7E,9E,11E,14Z-eicosatetraenoic acid]"
3,35.5,"CCCCC/C=C\C\C=C/C=C/C=C/[C@@H](SC[C@H](N)C(=O)O)[C@@H](O)CCCC(=O)O [(5S-(5R*,6S*(S*),7E,9E,11Z,14Z))-6-((2-Amino-2-carboxyethyl)thio)-5-hydroxy-7,9,11,14-eicosatetraenoic acid]"
4,6.89,COc1cc(C(=O)NS(=O)(=O)c2ccccc2)ccc1Cn1ncc2ccc(NC(=O)OC3CCCC3)cc21
